According to patent publication US20260138961A1, “MODULATORS OF MITOCHONDRIAL DNA REPLICATION” (Pretzel Therapeutics, Inc., priority 2022, published 2026):

The molecules below were run against T1, POLγA:Y955C (Homo sapiens, UniProt P54098, Y955C) (assay: DNA polymerization assay, POLγA:Y955C mutant). Details: stimulation of polymerase activity, primed M13mp18 ssDNA, 37° C. 2 hours.
T1 sequence (P54098 1-1239 Y955C): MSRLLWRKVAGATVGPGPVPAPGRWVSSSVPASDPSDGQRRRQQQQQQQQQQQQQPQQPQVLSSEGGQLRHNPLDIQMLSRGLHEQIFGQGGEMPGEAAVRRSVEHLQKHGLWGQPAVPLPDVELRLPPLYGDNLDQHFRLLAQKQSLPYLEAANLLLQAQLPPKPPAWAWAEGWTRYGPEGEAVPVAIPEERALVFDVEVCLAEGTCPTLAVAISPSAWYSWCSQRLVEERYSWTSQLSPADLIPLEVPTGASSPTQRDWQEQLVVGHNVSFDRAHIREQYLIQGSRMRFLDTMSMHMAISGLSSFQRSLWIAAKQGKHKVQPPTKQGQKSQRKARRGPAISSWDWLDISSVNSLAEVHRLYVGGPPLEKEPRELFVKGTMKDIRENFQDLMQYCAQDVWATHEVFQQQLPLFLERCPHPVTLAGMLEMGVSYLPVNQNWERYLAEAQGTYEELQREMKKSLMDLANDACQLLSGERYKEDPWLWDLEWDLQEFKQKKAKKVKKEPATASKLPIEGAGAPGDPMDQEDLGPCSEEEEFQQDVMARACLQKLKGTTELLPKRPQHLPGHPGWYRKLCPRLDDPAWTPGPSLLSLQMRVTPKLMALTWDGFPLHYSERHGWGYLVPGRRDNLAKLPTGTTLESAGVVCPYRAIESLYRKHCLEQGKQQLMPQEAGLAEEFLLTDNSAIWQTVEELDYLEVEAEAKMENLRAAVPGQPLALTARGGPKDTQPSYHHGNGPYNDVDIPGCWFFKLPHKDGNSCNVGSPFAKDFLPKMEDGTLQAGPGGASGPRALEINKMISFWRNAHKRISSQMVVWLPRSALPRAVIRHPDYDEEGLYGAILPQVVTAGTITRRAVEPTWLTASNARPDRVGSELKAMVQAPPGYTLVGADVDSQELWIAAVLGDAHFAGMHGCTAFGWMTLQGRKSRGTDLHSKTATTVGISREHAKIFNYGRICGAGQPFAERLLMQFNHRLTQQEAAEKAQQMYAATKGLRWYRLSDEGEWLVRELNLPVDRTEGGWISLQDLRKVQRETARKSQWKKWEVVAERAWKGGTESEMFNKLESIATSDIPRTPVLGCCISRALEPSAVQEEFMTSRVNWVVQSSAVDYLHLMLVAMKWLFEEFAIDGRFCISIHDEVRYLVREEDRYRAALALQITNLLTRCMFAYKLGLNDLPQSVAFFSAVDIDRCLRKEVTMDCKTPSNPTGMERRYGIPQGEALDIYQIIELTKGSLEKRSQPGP
T1 sequence (Q9UHN1 1-485 partner): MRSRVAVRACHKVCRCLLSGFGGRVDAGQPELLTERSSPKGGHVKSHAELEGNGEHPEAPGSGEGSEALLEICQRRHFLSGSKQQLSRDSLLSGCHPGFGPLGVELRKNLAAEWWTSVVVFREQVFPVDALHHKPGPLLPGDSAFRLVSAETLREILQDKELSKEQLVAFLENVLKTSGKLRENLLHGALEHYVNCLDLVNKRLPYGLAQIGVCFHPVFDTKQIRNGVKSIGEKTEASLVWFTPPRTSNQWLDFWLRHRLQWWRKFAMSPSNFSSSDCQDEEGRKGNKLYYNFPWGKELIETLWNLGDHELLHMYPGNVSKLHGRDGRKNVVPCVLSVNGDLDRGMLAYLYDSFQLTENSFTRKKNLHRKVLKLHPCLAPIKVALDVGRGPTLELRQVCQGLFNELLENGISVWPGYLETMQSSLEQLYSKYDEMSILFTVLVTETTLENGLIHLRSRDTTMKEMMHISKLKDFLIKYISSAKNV
Assay type: biochemical
Experimental: DNA Polymerization Assay to Monitor Effects on Human Wildtype POLγ and Four Disease-Causing Mutant Variants of Human POLγ.
The ability of small molecules to stimulate the polymerase activity of POLγ was analyzed in a quantitative fluorescence SYBR Green I assay with fluorescence intensity (FI) readout.
In the presence of dNTPs, wild type human POLγ and mutant derivatives thereof were incubated with single-stranded, circular M13mp18 ssDNA hybridized to a short DNA oligonucleotide that functions as a primer for initiation of DNA synthesis. POLγ and mutant derivatives thereof will extend the primer and use the M13mp18 molecule as a template to synthesize long stretches of double-stranded DNA. SYBR Green I, which is a double-stranded DNA-binding dye, was used to quantify formation of double-stranded DNA in the reaction. When bound to double-stranded DNA, SYBR Green I fluorescence increases by up to 100-fold.
The assay was performed in the 384-well plate format. Upon addition of compounds, changes in double-stranded DNA synthesis activity can be monitored by following effects on fluorescent intensity.
The reactions also contained the accessory POLγB subunit, and the human mitochondrial single-stranded DNA binding protein (mtSSB).
The DNA template mixture used in the assay contained 0.5 nM primed M13 mp18 ssDNA, 400 nM mtSSB, 0.1 mM Tris-HCl (pH 8.0), 0.1 mM dNTP, 10 mM MgCl2, 0.1 mg/mL BSA, 1 mM TCEP solution, and 0.02% Triton X-100. The DNA template mixture for the wild type protein contained either 100 μM dNTP, 1 μM dNTP, or 0.1 μM dNTP, designated in Table 2 as 100 μM, 1 μM, and 0.1 μM, respectfully.
Microplates with compounds (0.1 μL in each well) to be tested in the assay were prepared from 10 mM compound stocks in 100% DMSO, and equal amounts of DMSO without any compound were added to positive and negative control wells.
The protein mixture was dispensed (5 μL into each well) into compound plates and incubated at 37° C. for 15 minutes. After incubation, 5 μL of the DNA template mixture was dispensed into each well. The plates were then incubated at 37° C. for 2 hours.
During incubation, a combined stop buffer and detection reagent solution was prepared. The buffer contained 25 mM EDTA (pH 8.0), 0.02% Triton X-100, and SYBR Green I [Invitrogen] diluted 10,000× (for fluorescent readout). EDTA will stop the enzymatic reaction by chelating magnesium ions.

| AC50 [µM] | Structure (SMILES) |
| --- | --- |
| 0.4 | Cc1cc(S(=O)(=O)Nc2ccc3ccn(C(C)C)c3c2)c(C)cc1Cl [Example 69, 4-chloro-N-(1-isopropyl-1H-indol-6-yl)-2,5-dimethylbenzenesulfonamide] |
| > 100 | Cc1cc(S(=O)(=O)Nc2cccc(-c3cc(C4CC4)[nH]n3)c2)c(C)cc1Cl [Example 64, 4-chloro-N-(3-(5-cyclopropyl-1H-pyrazol-3-yl)phenyl)-2,5-dimethylbenzenesulfonamide] |
| 2 | Cc1cc(-c2cccc(NS(=O)(=O)c3cc(C)c(Cl)cc3C)c2)n[nH]1 [Example 66, 4-chloro-2,5-dimethyl-N-(3-(5-methyl-1H-pyrazol-3-yl)phenyl)benzenesulfonamide] |
| 2 | Cc1cc(S(=O)(=O)Nc2cccc(-c3cc[nH]n3)c2)c(C)cc1Cl [Example 68, N-(3-(1H-pyrazol-3-yl)phenyl)-4-chloro-2,5-dimethylbenzenesulfonamide] |
| 0.3 | Cc1csc(-c2cccc(NS(=O)(=O)c3cc(C)c(Cl)cc3C)c2)n1 [Example 20, 4-chloro-2,5-dimethyl-N-(3-(4-methylthiazol-2-yl)phenyl)benzenesulfonamide] |
| 7 | Cc1nc2ccc(NS(=O)(=O)c3cc(C)c(Cl)cc3C)cc2o1 [Example 70, 4-chloro-2,5-dimethyl-N-(2-methylbenzo[d]oxazol-6-yl)benzenesulfonamide] |
| 0.4 | Cc1ccc(C)c(S(=O)(=O)Nc2cccc(-c3nccs3)c2)c1 [Example 60] |
| 1 | Cc1cnc(-c2cccc(NS(=O)(=O)c3cc(C)c(Cl)cc3C)c2)s1 [Example 21, 4-chloro-2,5-dimethyl-N-(3-(5-methylthiazol-2-yl)phenyl)benzenesulfonamide] |
| 2 | Cc1cc2cc(NS(=O)(=O)c3cc(C)c(Cl)cc3C)ccc2[nH]1 [Example 184, 4-chloro-2,5-dimethyl-N-(2-methyl-1H-indol-5-yl)benzenesulfonamide] |
| 2 | CC[C@@H]1CCCN1C(=O)c1cccc(NS(=O)(=O)c2cc(C)c(Cl)cc2C)c1 [Example 65, (R)-4-chloro-N-(3-(2-ethylpyrrolidine-1-carbonyl)phenyl)-2,5-dimethylbenzenesulfonamide] |
